This note sets out measurements from patent US11253497B2, “Use of derivatives of polyunsaturated fatty acids as medicaments” (Lipopharma Therapeutics, S.L., priority 2009, dated 2022).

Molecules are shown by their SMILES.

Broadly, the IC50 is the midpoint of a concentration-inhibition curve. A higher IC50 goes with a need for much substance.

What all share (settings): 72 hours of incubation
Test [1] concerns breast cancer cells MDA-MB-231. Put plainly: Growth of breast cancer cells MDA-MB-231. The test is classed as cell-based. As for the experimental part:
(§1) For the experiments shown in FIG. 1, cultured human Non Small Cell Lung Cancer cells (A549) in RPMI 1640 were used, supplemented with 10% foetal bovine serum and antibiotics, at 37° C. and 5% CO2. […] After treatment, cell count was performed and the study of the mechanisms involved in the antitumor activity of compounds was evaluated by flow cytometry. […] These values correspond to averages of three independent experiments.
(§2) These charts show the antitumor efficacy of the compounds of this invention against the growth of breast cancer cells, brain (glioma), and lung cancer. […] The other experimental conditions are identical to those described in the preceding paragraph.

The next test deals with lung cancer cells A549. Put plainly: Growth of lung cancer cells A549 (IC50). It is filed as cell-based, human. As for the experimental part:
as §1, §2

The test system of test [2] is brain cancer cell (glioma) U118. Briefly: Brain cancer (glioma) U118 cell growth. It is filed as cell-based. As for the experimental part: For the experiments shown in FIG. 1, cultured human Non Small Cell Lung Cancer cells (A549) in RPMI 1640 were used, supplemented with 10% foetal bovine serum and antibiotics, at 37° C. and 5% CO2. Cells were maintained in culture for 48 hours in the presence or absence of D-PUFAs and PUFAs indicated in Table 2 at a concentration of 250 µM. After treatment, cell count was performed and the study of the mechanisms involved in the antitumor activity of compounds was evaluated by flow cytometry. […] These values correspond to averages of three independent experiments.
as §2

On to `CCCCCC=CCC=CCCCCCCC(O)C(=O)O` (stereo not drawn) [182C1], for which the figures for the IC50 (in test [1]; in the test with lung cancer cells A549; in test [2]) were 386 µM, 635 µM and 208 µM, respectively.
The like results for `CCCCCC=CCC=CCCCCCCC(OC)C(=O)OC` (stereo not drawn) [182H1] were, in that order, 402 µM, 462 µM and 267 µM.
The like results for `CCCCCC=CCC=CCCCCCCC(OC)C(=O)OCC` (stereo not drawn) [182I1] were, in that order, 411 µM, 673 µM and 240 µM.
In the case of `CCCCCC=CCC=CCCCCCCC(C)C(=O)OC` (stereo not drawn) [182M1], the IC50 in test [1] worked out at 362 µM; in the test on lung cancer cells A549 it was 286 µM; in test [2], 238 µM.
For `CCCCCC=CCC=CCCCCCCC(CO)C(=O)OCC` (stereo not drawn) [182Q1], the IC50 in test [1] was found to be 328 µM; with lung cancer cells A549, 293 µM.
For the compound `CCCCCC=CCC=CCCCCCCC(F)C(=O)OCC` (stereo not drawn) [182T1], the IC50 in test [1] came out at 391 µM; in the test on lung cancer cells A549, 379 µM; in test [2] it was 214 µM.
The like results for `CCCCCC=CCC=CCCCCCCC(OC=O)C(=O)OC` (stereo not drawn) [182U1] were, in that order, 410 µM, 255 µM and 212 µM.
As to `CCCCCC=CCC=CCCCCCCC(C(=O)OCC)N(OCC)OCC` (stereo not drawn) [182W1], the IC50 in test [1] stood at 391 µM; in the test with lung cancer cells A549, 416 µM; in test [2], 246 µM.
As to `CCC=CCC=CCC=CCCCCCCC(O)C(=O)O` (stereo not drawn) [183C1], the IC50 in test [1] worked out at 289 µM; in the test on lung cancer cells A549, 281 µM.
As for `CCCCCC=CCC=CCC=CCCCC(O)C(=O)O` (stereo not drawn) [183C2], the IC50 was 168 µM in test [1], 241 µM in the test with lung cancer cells A549 and 379 µM in test [2].
As for `CCC=CCC=CCC=CCCCCCCC(OC)C(=O)OC` (stereo not drawn) [183H1], the IC50 in test [1] came out at 308 µM; with lung cancer cells A549 it was 319 µM; in test [2], 408 µM.
With `CCCCCC=CCC=CCC=CCCCC(OC)C(=O)OC` (stereo not drawn) [183H2], the IC50 amounted to 170 µM in test [1], 219 µM with lung cancer cells A549 and 443 µM in test [2].
The like results for `CCC=CCC=CCC=CCCCCCCC(OC)C(=O)OCC` (stereo not drawn) [183I1] were, in that order, 274 µM, 348 µM and 321 µM.
The like results for `CCCCCC=CCC=CCC=CCCCC(OC)C(=O)OCC` (stereo not drawn) [183I2] were, in that order, 210 µM, 276 µM and 432 µM.
The like results for `CCC=CCC=CCC=CCCCCCCC(C)C(=O)OC` (stereo not drawn) [183M1] were, in that order, 407 µM, 322 µM and 349 µM.
With `CCCCCC=CCC=CCC=CCCCC(C)C(=O)OC` (stereo not drawn) [183M2], the figures for the IC50 (in test [1]; in the test with lung cancer cells A549; in test [2]) were 164 µM, 248 µM and 407 µM, respectively.
The like results for `CCC=CCC=CCC=CCCCCCCC(CO)C(=O)OCC` (stereo not drawn) [183Q1] were, in that order, 312 µM, 273 µM and 282 µM.
Regarding `CCCCCC=CCC=CCC=CCCCC(CO)C(=O)OCC` (stereo not drawn) [183Q2], the values for the IC50 (in test [1]; in the test with lung cancer cells A549; in test [2]) were 205 µM, 314 µM and 392 µM, respectively.
The like results for `CCC=CCC=CCC=CCCCCCCC(F)C(=O)OCC` (stereo not drawn) [183T1] were, in that order, 290 µM, 367 µM and 368 µM.
The like results for `CCCCCC=CCC=CCC=CCCCC(F)C(=O)OCC` (stereo not drawn) [183T2] were, in that order, 216 µM, 279 µM and 423 µM.
The like results for `CCC=CCC=CCC=CCCCCCCC(OC=O)C(=O)OC` (stereo not drawn) [183U1] were, in that order, 344 µM, 294 µM and 343 µM.
As to `CCCCCC=CCC=CCC=CCCCC(OC=O)C(=O)OC` (stereo not drawn) [183U2], the figures for the IC50 (in test [1]; in the test on lung cancer cells A549; in test [2]) were 228 µM, 287 µM and 380 µM, respectively.
For the compound `CCC=CCC=CCC=CCCCCCCC(C(=O)OCC)N(OCC)OCC` (stereo not drawn) [183W1], the IC50 in test [1] came to 311 µM; in the test with lung cancer cells A549, 352 µM.
For the compound `CCCCCC=CCC=CCC=CCCCC(C(=O)OCC)N(OCC)OCC` (stereo not drawn) [183W2], the IC50 in test [1] stood at 203 µM; in the test on lung cancer cells A549 it was 212 µM; in test [2] it was 438 µM.
As for `CCCCCC=CCC=CCC=CCC=CCCC(O)C(=O)O` (stereo not drawn) [204C1], the IC50 was determined as 389 µM in test [1], 521 µM in the test with lung cancer cells A549 and 287 µM in test [2].
The like results for `CCCCCC=CCC=CCC=CCC=CCCC(OC)C(=O)OC` (stereo not drawn) [204H1] were, in that order, 363 µM, 398 µM and 263 µM.
On to `CCCCCC=CCC=CCC=CCC=CCCC(OC)C(=O)OCC` (stereo not drawn) [204I1], for which the IC50 in test [1] came out at 315 µM; in the test with lung cancer cells A549 it was 459 µM; in test [2] it was 328 µM.
The like results for `CCCCCC=CCC=CCC=CCC=CCCC(OC(C)=O)C(=O)OC` (stereo not drawn) [204J1] were, in that order, 285 µM, 362 µM and 296 µM.
The like results for `CCCCCC=CCC=CCC=CCC=CCCC(C)C(=O)OC` (stereo not drawn) [204M1] were, in that order, 321 µM, 375 µM and 309 µM.
The like results for `CCCCCC=CCC=CCC=CCC=CCCC(CO)C(=O)OCC` (stereo not drawn) [204Q1] were, in that order, 306 µM, 348 µM and 324 µM.
Consider `CCCCCC=CCC=CCC=CCC=CCCC(F)C(=O)OCC` (stereo not drawn) [204T1], for which the IC50 in test [1] is 317 µM; with lung cancer cells A549 it was 352 µM; in test [2], 385 µM.
As for `CCCCCC=CCC=CCC=CCC=CCCC(OC=O)C(=O)OC` (stereo not drawn) [204U1], the IC50 in test [1] is 369 µM; with lung cancer cells A549, 270 µM; in test [2], 263 µM.
The like results for `CCCCCC=CCC=CCC=CCC=CCCC(C(=O)OCC)N(OCC)OCC` (stereo not drawn) [204W1] were, in that order, 311 µM, 341 µM and 287 µM.
The like results for `CCC=CCC=CCC=CCC=CCC=CCCC(O)C(=O)O` (stereo not drawn) [205C1] were, in that order, 223 µM, 325 µM and 442 µM.
On to `CCC=CCC=CCC=CCC=CCC=CCCC(OC)C(=O)OC` (stereo not drawn) [205H1], for which the IC50 in test [1] was 282 µM; with lung cancer cells A549, 290 µM; in test [2], 439 µM.
The like results for `CCC=CCC=CCC=CCC=CCC=CCCC(OC)C(=O)OCC` (stereo not drawn) [205I1] were, in that order, 261 µM, 351 µM and 510 µM.
Take `CCC=CCC=CCC=CCC=CCC=CCCC(C)C(=O)OC` (stereo not drawn) [205M1]: the IC50 in test [1] came out at 216 µM; with lung cancer cells A549 it was 293 µM; in test [2], 462 µM.
The like results for `CCC=CCC=CCC=CCC=CCC=CCCC(CO)C(=O)OCC` (stereo not drawn) [205Q1] were, in that order, 247 µM, 365 µM and 419 µM.
The like results for `CCC=CCC=CCC=CCC=CCC=CCCC(F)C(=O)OCC` (stereo not drawn) [205T1] were, in that order, 233 µM, 322 µM and 427 µM.
The like results for `CCC=CCC=CCC=CCC=CCC=CCCC(OC=O)C(=O)OC` (stereo not drawn) [205U1] were, in that order, 272 µM, 426 µM and 454 µM.
In the case of `CCC=CCC=CCC=CCC=CCC=CCCC(C(=O)OCC)N(OCC)OCC` (stereo not drawn) [205W1], the figures for the IC50 (in test [1]; with lung cancer cells A549; in test [2]) were 256 µM, 420 µM and 443 µM, respectively.
The like results for `CCC=CCC=CCC=CCC=CCC=CCC=CCC(O)C(=O)O` (stereo not drawn) [226C1] were, in that order, 210 µM, 214 µM and 237 µM.
